The target in test [1] is Calcium/calmodulin-dependent protein kinase type II subunit beta (Homo sapiens) (UniProt Q13554).
Test [2] has as its target Calcium/calmodulin-dependent protein kinase type II subunit delta (Homo sapiens) (UniProt Q13557).
The target in test [3] is Calcium/calmodulin-dependent protein kinase kinase 2 (Homo sapiens, UniProt Q96RR4).
For test [4], the target named is Cyclin-dependent kinase 6 (Homo sapiens) (UniProt Q00534).
The target of test [5] is Dual specificity protein kinase CLK1 (Homo sapiens) (UniProt P49759).
The target of test [6] is T1, Myotonin-protein kinase (Homo sapiens) (UniProt Q09013).
T1 sequence (whole entry): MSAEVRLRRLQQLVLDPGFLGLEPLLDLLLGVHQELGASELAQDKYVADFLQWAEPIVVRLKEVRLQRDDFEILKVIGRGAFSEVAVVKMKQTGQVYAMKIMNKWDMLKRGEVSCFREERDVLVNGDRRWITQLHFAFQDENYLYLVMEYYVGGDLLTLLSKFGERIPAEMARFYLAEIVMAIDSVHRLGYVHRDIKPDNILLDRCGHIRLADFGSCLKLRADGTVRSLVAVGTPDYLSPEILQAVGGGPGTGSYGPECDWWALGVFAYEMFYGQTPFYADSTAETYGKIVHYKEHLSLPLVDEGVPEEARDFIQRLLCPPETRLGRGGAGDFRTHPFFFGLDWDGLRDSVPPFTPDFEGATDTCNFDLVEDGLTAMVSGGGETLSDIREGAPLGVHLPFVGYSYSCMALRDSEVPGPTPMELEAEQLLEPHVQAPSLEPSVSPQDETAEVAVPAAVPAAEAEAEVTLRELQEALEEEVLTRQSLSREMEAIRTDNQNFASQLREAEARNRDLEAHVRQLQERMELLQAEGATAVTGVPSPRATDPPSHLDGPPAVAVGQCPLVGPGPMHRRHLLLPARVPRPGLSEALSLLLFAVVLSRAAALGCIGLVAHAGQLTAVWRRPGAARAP

For test [7], the target named is Glycogen synthase kinase-3 beta (Homo sapiens, UniProt P49841).
Chain of Glycogen synthase kinase-3 beta (P49841 whole entry, looked up): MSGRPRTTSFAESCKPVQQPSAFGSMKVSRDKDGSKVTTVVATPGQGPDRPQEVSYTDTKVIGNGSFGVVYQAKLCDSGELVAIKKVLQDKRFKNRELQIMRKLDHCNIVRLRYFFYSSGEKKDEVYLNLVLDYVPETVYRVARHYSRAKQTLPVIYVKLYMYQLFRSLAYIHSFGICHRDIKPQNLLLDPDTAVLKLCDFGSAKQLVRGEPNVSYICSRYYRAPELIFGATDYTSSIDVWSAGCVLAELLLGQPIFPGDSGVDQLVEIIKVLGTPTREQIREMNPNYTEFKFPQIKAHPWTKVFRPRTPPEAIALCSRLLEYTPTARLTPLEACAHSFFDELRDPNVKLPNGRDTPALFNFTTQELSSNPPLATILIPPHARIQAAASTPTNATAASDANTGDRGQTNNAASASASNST
Test [8] addresses Serine/threonine-protein kinase PAK 4 (Homo sapiens) (UniProt O96013).
The target of test [9] is Ribosomal protein S6 kinase alpha-3 (Homo sapiens) (UniProt P51812).
Chain of Ribosomal protein S6 kinase alpha-3 (Homo sapiens) (P51812 whole entry): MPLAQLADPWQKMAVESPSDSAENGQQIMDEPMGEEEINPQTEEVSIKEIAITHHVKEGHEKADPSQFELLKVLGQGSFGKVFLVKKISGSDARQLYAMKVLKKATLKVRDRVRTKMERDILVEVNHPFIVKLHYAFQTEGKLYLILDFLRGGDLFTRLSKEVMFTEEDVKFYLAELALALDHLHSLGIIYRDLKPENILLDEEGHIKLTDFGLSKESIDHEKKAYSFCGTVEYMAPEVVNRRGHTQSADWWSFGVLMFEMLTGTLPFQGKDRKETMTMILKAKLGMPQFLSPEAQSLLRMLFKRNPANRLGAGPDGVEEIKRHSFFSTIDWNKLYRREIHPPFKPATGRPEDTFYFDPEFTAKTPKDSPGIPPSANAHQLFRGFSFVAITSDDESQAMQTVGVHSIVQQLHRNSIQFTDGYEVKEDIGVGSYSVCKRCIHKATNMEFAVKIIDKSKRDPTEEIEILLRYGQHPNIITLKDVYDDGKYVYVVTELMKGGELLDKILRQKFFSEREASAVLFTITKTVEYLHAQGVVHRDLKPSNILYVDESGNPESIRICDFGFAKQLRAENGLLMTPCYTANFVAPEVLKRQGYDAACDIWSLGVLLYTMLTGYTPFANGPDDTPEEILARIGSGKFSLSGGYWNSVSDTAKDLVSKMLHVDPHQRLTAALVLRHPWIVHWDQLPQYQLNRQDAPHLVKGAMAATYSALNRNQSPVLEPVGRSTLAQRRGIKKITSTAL
Test [10] addresses Serine/threonine-protein kinase 10 (Homo sapiens) (UniProt O94804).
Test [11] deals with T2, Serine/threonine-protein kinase 17A (Homo sapiens) (UniProt Q9UEE5).
T2 sequence (whole entry): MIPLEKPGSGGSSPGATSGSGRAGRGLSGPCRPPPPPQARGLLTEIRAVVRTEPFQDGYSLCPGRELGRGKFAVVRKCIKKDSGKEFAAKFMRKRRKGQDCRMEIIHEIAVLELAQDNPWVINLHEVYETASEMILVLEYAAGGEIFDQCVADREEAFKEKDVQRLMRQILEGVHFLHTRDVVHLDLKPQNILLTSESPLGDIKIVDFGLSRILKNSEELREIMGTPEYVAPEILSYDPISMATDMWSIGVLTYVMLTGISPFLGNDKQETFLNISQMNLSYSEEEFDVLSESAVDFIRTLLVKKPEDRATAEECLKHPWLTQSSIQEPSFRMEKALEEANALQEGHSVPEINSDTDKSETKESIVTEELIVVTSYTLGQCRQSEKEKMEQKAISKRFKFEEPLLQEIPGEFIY

For test [12], the target named is Serine/threonine-protein kinase 26 (Homo sapiens) (UniProt Q9P289).
Chain of Serine/threonine-protein kinase 26 (Homo sapiens) (Q9P289 2-416 limits assumed): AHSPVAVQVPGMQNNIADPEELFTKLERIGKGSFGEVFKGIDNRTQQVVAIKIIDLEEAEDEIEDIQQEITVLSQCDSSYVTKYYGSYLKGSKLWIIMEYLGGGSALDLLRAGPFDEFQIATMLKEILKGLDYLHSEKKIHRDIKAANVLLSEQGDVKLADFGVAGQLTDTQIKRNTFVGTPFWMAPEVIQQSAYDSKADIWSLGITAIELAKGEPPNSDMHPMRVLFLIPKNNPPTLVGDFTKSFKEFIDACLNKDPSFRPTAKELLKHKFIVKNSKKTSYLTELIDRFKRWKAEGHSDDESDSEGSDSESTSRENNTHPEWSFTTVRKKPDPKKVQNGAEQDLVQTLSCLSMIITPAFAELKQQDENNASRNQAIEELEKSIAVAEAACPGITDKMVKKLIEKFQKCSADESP
For test [13], the target named is TRAF2 and NCK-interacting protein kinase (Homo sapiens) (UniProt Q9UKE5).
For test [14], the target named is T3, Lymphokine-activated killer T-cell-originated protein kinase (Homo sapiens) (UniProt Q96KB5).
T3 sequence (whole entry): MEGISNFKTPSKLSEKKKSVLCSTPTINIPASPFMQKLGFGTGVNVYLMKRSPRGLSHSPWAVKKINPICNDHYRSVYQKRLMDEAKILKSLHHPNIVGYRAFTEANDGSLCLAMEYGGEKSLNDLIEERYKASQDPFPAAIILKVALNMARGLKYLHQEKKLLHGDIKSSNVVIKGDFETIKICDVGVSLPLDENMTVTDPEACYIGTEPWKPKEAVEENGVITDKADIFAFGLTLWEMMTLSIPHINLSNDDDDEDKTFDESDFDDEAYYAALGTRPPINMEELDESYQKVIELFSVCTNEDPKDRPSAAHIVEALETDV

For test [15], the target named is T4, Serine/threonine-protein kinase VRK1 (Homo sapiens) (UniProt Q99986).
T4 sequence (whole entry): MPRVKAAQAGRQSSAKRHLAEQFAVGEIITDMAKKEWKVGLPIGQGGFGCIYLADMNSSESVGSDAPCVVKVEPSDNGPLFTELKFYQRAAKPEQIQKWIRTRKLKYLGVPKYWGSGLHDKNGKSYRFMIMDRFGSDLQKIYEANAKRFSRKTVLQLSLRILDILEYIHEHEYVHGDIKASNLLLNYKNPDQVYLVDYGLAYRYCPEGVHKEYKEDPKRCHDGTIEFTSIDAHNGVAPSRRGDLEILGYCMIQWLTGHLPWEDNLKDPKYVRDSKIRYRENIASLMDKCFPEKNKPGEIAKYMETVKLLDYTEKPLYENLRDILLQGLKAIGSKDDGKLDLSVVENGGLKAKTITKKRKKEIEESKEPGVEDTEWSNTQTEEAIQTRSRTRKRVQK

Chain of Cyclin-dependent kinase 6 (Homo sapiens) (Q00534 whole entry): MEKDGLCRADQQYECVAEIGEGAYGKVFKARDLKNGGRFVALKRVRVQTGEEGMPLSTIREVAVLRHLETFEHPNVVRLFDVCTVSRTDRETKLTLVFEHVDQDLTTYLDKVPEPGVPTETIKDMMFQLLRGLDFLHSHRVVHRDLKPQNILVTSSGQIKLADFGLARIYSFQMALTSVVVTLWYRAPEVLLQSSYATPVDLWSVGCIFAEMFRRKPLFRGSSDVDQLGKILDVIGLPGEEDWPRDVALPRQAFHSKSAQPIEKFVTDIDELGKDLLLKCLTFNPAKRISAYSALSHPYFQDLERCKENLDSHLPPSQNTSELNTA
Chain of Serine/threonine-protein kinase 10 (Homo sapiens) (O94804 whole entry, looked up): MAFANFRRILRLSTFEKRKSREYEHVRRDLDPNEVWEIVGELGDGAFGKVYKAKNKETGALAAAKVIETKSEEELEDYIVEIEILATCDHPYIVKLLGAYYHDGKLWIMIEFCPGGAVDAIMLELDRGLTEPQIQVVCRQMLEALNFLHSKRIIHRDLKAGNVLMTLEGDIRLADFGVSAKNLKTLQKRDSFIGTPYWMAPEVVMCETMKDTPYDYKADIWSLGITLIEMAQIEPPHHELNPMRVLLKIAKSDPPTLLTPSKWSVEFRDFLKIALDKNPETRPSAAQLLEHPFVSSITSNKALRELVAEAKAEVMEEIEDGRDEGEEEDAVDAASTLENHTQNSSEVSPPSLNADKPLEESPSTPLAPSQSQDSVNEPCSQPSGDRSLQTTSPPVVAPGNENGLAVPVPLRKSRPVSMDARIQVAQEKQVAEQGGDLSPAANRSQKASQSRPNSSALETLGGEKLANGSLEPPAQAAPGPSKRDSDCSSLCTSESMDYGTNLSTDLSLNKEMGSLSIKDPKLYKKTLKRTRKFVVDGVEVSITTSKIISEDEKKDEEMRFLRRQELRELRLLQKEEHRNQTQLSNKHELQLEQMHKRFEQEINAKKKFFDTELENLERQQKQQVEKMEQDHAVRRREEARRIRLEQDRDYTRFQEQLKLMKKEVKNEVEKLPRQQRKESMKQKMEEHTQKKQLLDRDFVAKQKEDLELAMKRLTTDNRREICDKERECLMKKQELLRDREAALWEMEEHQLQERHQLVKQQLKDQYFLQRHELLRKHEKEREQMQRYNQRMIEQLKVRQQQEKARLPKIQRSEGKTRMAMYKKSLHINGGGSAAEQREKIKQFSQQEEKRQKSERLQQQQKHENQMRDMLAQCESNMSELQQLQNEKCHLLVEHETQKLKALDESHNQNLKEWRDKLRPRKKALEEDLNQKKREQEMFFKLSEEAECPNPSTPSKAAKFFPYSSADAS
Chain of Calcium/calmodulin-dependent protein kinase type II subunit beta (Homo sapiens) (Q13554 whole entry): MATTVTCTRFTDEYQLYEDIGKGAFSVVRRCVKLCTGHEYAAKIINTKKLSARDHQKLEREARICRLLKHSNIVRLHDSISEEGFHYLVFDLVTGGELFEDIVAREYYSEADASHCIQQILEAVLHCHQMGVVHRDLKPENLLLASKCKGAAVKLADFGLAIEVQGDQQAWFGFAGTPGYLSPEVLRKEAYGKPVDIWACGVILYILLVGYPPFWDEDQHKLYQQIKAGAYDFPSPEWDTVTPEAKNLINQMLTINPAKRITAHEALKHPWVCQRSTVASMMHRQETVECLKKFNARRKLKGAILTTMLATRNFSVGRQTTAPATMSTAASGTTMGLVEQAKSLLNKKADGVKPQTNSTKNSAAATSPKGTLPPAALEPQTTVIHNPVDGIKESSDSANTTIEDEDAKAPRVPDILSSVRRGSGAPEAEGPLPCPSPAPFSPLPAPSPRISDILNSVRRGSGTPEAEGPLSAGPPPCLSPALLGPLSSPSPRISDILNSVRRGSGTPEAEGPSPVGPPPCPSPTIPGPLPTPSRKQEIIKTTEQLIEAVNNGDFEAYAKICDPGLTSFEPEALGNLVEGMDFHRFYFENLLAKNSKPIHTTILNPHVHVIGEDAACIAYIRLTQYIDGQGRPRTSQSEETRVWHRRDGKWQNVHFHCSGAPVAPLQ
Chain of Serine/threonine-protein kinase PAK 4 (Homo sapiens) (O96013 whole entry, looked up): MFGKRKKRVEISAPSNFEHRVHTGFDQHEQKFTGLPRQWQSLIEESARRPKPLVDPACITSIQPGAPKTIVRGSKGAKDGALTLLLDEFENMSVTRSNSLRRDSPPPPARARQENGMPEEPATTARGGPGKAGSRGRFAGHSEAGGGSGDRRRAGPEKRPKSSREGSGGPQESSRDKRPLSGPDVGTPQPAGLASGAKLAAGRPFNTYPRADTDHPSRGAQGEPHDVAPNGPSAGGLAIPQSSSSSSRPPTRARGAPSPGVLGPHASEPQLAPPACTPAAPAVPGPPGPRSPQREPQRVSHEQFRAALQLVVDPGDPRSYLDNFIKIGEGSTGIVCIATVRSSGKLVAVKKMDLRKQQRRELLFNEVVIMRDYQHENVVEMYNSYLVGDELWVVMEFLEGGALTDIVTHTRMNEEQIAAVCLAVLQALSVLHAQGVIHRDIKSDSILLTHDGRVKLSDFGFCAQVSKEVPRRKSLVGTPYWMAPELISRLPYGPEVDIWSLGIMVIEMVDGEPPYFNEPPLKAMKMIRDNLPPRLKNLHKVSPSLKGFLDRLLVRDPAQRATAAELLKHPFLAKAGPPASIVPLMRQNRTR
Chain of Calcium/calmodulin-dependent protein kinase kinase 2 (Q96RR4 2-588 limits assumed): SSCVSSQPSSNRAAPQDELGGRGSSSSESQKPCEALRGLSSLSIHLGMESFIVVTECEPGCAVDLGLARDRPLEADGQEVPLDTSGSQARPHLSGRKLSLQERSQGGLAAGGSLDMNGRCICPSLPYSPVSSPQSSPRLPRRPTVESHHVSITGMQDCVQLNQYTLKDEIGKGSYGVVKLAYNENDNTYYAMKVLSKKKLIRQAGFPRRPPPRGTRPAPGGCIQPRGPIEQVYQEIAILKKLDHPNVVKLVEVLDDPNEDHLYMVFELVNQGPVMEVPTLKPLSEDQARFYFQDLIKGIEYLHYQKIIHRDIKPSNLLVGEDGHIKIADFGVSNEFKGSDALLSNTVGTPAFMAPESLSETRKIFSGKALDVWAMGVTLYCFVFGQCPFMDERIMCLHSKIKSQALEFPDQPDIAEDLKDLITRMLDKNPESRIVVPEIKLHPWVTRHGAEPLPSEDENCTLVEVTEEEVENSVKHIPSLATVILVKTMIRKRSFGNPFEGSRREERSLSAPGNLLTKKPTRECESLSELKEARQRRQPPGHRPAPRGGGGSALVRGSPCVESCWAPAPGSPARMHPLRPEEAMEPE

Usually ΔTm stands for the change in melting temperature against a reference sample. On to `COc1cc2ncnc(Nc3ccc(F)c(Cl)c3)c2cc1OCCCN1CCOCC1`, for which the ΔTm came to 0.3 °C in test [1]; 0.1 °C in test [2]; 0.7 °C in test [3]; 0.6 °C in test [4]; 0.7 °C in [5]; 3.6 °C in test [6]. Further, the ΔTm is 0.9 °C in test [7]; 1.2 °C in test [8]; 1.3 °C in [9]; 0 °C in [10]; 0.6 °C in test [11]; 1.2 °C in test [12]. The results for the thermal shift (ΔTm) in [13], in test [14] and in test [15] were -1 °C, 0.6 °C and 0.5 °C, respectively.

In the case of `COc1ccc(COc2ccc(Cc3cnc(N)nc3N)cc2OC)cc1`, the ΔTm in test [1] is -0.2 °C; in [2], -0.2 °C; in test [3] it was -0.1 °C; in [4], 0.9 °C; in test [5], -1.5 °C; in test [6], 0.1 °C. The shift in melting temperature (ΔTm) in test [7] was 0.4 °C; in [8], -0.1 °C; in [9], -0.3 °C; in test [10] it was -0.5 °C; in [11] it was -0.4 °C; in test [12] it was 0 °C. Also, the ΔTm in test [13] is 0.1 °C; in test [14], -0.1 °C; in [15], -0.2 °C.

`OC[C@H]1O[C@@H](n2cnc3cc(Cl)c(Cl)cc32)[C@H](O)[C@@H]1O`: the shift in melting temperature (ΔTm) in test [1] is -0.1 °C; in test [2], -0.2 °C; in [3], 0.6 °C; in test [4], -0.3 °C; in test [5] it was 3.1 °C; in [6] it was 0.1 °C. The thermal shift (ΔTm) is 0.7 °C in [7]; -0.9 °C in [8]; 1.3 °C in test [9]; -0.7 °C in test [10]; 2.1 °C in test [11]; -0.3 °C in [12]. Further, the ΔTm was 0.2 °C in test [13], 0.6 °C in test [14] and -0.1 °C in [15].

Take `Cc1cncc2cccc(S(=O)(=O)N3CCCNC[C@@H]3C)c12`: the ΔTm was 1.1 °C in [1]; -0.4 °C in [2]; -0.1 °C in [3]; -0.1 °C in [4]; 3 °C in [5]; 0.4 °C in [6]. Also, the ΔTm in test [7] was determined as 0.6 °C; in test [8], 0.7 °C; in [9], 2.4 °C; in [10], 3.5 °C; in [11], 2 °C; in test [12], 0.8 °C. The results for the thermal shift (ΔTm) in test [13], in test [14] and in test [15] were 1 °C, 1 °C and 0.6 °C, respectively.

As for `N#C/C(=C\c1ccc(O)c(O)c1)C(=O)Nc1ccccc1`, the ΔTm in [1] is 0.2 °C; in test [2], 1 °C; in [3], 0.5 °C; in [4], 0.4 °C; in test [5], 1 °C; in [6] it was -0.1 °C. For the same compound, the ΔTm in [7] is 0.7 °C; in test [8], -0.5 °C; in test [9] it was 0.8 °C; in test [10], 1.2 °C; in test [11] it was 2.8 °C; in test [12], 0.4 °C. Besides, the thermal shift (ΔTm) turned out to be 1 °C in [13], 0.5 °C in [14] and 0.2 °C in [15].

Consider `Cn1cc(C2=C(c3cn(CCCN)c4ccccc34)C(=O)NC2=O)c2ccccc21`, for which the shift in melting temperature (ΔTm) in test [1] was 1.7 °C; in [2], -0.5 °C; in test [3], -0.1 °C; in [4], 1.3 °C; in test [5], 8.2 °C; in test [6] it was 6.9 °C. Also, the ΔTm in [7] was 11.9 °C; in test [8], 4.3 °C; in test [9] it was 8.1 °C; in [10], 6.7 °C; in test [11] it was 4.6 °C; in [12] it was -0.2 °C. Moreover, the thermal shift (ΔTm) in test [13] was 0.8 °C; in test [14], -0.8 °C; in [15], 0.9 °C.

Consider `Nc1nccc(-c2c(-c3ccc(F)cc3)ncn2C2CCNCC2)n1`, for which the ΔTm was -0.2 °C in [1]; 0.2 °C in test [2]; 0.1 °C in test [3]; 0.3 °C in test [4]; 1.3 °C in test [5]; 0.6 °C in [6]. Further, the ΔTm in test [7] was 0.9 °C; in test [8], 1 °C; in test [9] it was 0.8 °C; in test [10], 1.5 °C; in test [11] it was 0.4 °C; in test [12], 2.1 °C. Moreover, the results for the thermal shift (ΔTm) in test [13], in [14] and in test [15] were -0.9 °C, 0.5 °C and 1.1 °C, respectively.

For the compound `O=c1cc(-c2ccc(O)cc2)oc2cc(O)cc(O)c12`, the thermal shift (ΔTm) in [1] stood at 0.5 °C; in [2] it was 0.7 °C; in test [3], 3 °C; in test [4] it was 0.4 °C; in test [5], 3.9 °C; in test [6], 0.6 °C. In addition, the shift in melting temperature (ΔTm) in [7] was 5 °C; in test [8], 0.3 °C; in test [9] it was 2.7 °C; in test [10], 4 °C; in [11] it was 7.3 °C; in [12], 2.1 °C. The thermal shift (ΔTm) in test [13] came to 5.3 °C; in test [14] it was 0.5 °C; in [15], 0.2 °C.

As to `CC(C)N(CCO)c1nc(Nc2cccc(Cl)c2)c2ncn(C(C)C)c2n1`, the ΔTm in test [1] came to 0.4 °C; in test [2] it was 0.2 °C; in test [3] it was 2.8 °C; in test [4] it was 0.2 °C; in test [5], 5.9 °C; in test [6] it was 0.2 °C. In addition, the shift in melting temperature (ΔTm) in test [7] is 2.4 °C; in test [8], 4.7 °C; in test [9], 6 °C; in [10], 3.3 °C; in test [11], -0.1 °C; in test [12] it was 0.7 °C. In addition, the thermal shift (ΔTm) in [13] was found to be 3.6 °C; in test [14], 0 °C; in test [15] it was 0.5 °C.

As to `N#C/C(=C\c1ccc(O)c(O)c1)C(=O)NCc1ccccc1`, the ΔTm in [1] was 0.2 °C; in test [2], 0.3 °C; in [3], 0.2 °C; in [4], 0.4 °C; in test [5] it was 1 °C; in test [6] it was -0.6 °C. For the same compound, the ΔTm was 2.6 °C in test [7]; -0.1 °C in test [8]; 0.6 °C in test [9]; 0.7 °C in test [10]; 4.4 °C in [11]; 0 °C in test [12]. Moreover, the ΔTm in test [13] was 0.8 °C; in test [14], 0.7 °C; in test [15], 0.4 °C.

The values are drawn from ChEMBL document CHEMBL1145498, “A systematic interaction map of validated kinase inhibitors with Ser/Thr kinases” (Proc Natl Acad Sci U S A, 2007).
